Reference: article PMC12758328 (Virulence, 2025)

Key:
[1] = target: T1, SpyGapN (Streptococcus pyogenes, UniProt Q99Z67); test: NADPH formation at […] nm; assay type: biochemical; settings: for inhibition at 40000 µM: read-out: % inhibition at 40 mM
T1 sequence (Q99Z67 1-475): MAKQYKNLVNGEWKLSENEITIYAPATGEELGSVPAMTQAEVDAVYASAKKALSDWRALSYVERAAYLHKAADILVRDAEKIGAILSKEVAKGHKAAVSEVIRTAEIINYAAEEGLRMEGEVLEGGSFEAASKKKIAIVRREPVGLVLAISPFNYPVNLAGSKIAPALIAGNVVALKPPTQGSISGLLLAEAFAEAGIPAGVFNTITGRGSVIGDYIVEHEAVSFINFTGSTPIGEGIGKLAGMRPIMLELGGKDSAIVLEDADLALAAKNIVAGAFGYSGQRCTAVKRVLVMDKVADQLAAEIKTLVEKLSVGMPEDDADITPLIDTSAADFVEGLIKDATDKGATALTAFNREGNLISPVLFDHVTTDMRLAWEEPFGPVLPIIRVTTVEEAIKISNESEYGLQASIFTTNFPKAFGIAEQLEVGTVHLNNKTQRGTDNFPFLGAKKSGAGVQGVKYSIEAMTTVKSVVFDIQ

[2] = target: T2, SpyGapDH (Streptococcus pyogenes, UniProt P0C0G7); test: NADH formation at […] nm; assay type: biochemical; settings: 10 mM NAD+, 10 mM phosphate, 200 mM Tricine pH 8.5
T2 sequence (P0C0G7 2-336): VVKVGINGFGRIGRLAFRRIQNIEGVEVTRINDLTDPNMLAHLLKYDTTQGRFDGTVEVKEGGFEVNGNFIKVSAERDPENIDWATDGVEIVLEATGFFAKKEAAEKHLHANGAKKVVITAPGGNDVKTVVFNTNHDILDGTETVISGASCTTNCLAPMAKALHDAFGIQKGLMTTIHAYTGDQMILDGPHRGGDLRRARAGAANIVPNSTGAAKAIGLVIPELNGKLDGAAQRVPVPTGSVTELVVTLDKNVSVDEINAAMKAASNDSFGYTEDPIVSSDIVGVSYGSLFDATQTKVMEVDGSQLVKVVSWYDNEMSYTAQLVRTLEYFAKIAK

Compound: Nc1cncnc1 [R65, Pyrimidine-5-amine]
- inhibition at 40000 µM [1]: ~42%

Compound: Oc1ccnnc1 [R76, 4-Hydroxypyridazine]
- inhibition at 40000 µM [1]: ~16%

Compound: (ethoxyoxydophosphanyl)formate [compound 32]
- % inhibition at 8 mM ([1]; 2 mM DL-G3P, 10 mM NADP+, 200 mM Tricine pH 8.5): ~ 25%

Compound: O=CC(O)COP(=O)(O)O (racemic) [DL-glyceraldehyde 3-phosphate]
- NADH formation at 340 nm [2]: To measure the GapDH activity, the assay mixture contained

Compound: O=S(=O)(O)C(O)C(O)S(=O)(=O)O (centres unmarked) [compound 26, 1,2-dihydroxyethane-1,2-disulfonate]
- inhibition at 8000 µM ([1]; read-out: % inhibition at 8 mM): ~50%
